Results: US12144886B2, “Perineural administration of resiniferatoxin for treatment of maladaptive pain” (Sorrento Therapeutics, Inc., priority 2018, dated 2024)

Tests used:
[1] = system: declawed cats with chronic distal thoracic limb pain; test: Adverse events in open-label multicenter trial of perineural RTX in declawed cats; type: in vivo, cat; settings: for Animals with self-limiting reactions related to the treatment: during recovery from anesthesia
Experimental: Cats suffering from severe bilateral chronic pain (more than 90 days) as a result of severe complications after onychectomy were enrolled in this study (an exploratory, open-label, multicenter clinical trial). Thirteen (13) cases were treated for initial pain and reduced quality of life (QoL). Then, bilateral perineural distal limb injections (ring block technique) were administered under general anesthesia (a combination of diphenhydramine, buprenorphine, dexmedetomidine, ketamine, and isoflurane). Following a published technique (Enomoto et al., 2016) for the nerve block of the manus of the cat, the total dose of RTX was equally distributed adjacent to the 1) superficial branch of the radial nerve, 2) dorsal branch of the ulnar nerve, 3) median nerve and superficial branch of the palmar branch of the ulnar nerve, and 4) deep branch of palmar branch of the ulnar nerve. A total of 2.5 ug (1.25 ug/1 mL per forelimb in Group 1, n=7) and 5 ug (2.5 ug/1 mL per forelimb in Group 2, n=6) of RTX was injected as a one-time treatment. Group 2 included the cat for which detailed results are provided in Example B above. Monitoring of QoL and pain for the following 28 days was accomplished using the Client-Specific Outcome Measures feline (CSOMf), the Feline Musculoskeletal Pain Index (FMPI), two post-injection physical examinations, and videography on days 3, 7, 14, and 28 post injections.

[2] = system: declawed cat with maladaptive pain; test: Client Specific Outcome Measure (CSOM) in a declawed cat after perineural RTX nerve blocks; type: in vivo; parameters: key to CSOM Total score / CSOM Q1 Extending distal limb; “kneading”; stretching / CSOM Q2 Running / CSOM Q3 Jumping down from bed and window: 1 = no problem; 2 = mild difficulty; 3 = moderate; 4 = severe difficulty; 5 = impossible; settings: one cat; for CSOM Q1 Extending distal limb; “kneading”; stretching / CSOM Q2 Running / CSOM Q3 Jumping down from bed and window / CSOM Total score: 2.5 μg/forelimb perineural
Experimental: Each dose of 5 μg/cat or 2.5 μg/forelimb will be formulated in 1 cc insulin syringes by diluting 0.1 mL: (2.5 μg) of RTX in 0.9 mL sterile saline for injection immediately before use. For treatment, a total of 1.0 mL (2.5 μg) will be injected as nerve blocks, distributed equally (0.25 ml per injection site) over 4 injection sites for each forelimb.
Four point nerve blocks are performed by injection of 0.25 mL RTX each into the 1) superficial branches of the radial nerve, 2) dorsal branch of the ulnar nerve, 3) median nerve and superficial branch of the palmar branch of the ulnar nerve, and 4) deep branch of the palmar branch of the ulnar nerve. The nerve blocks for each forelimb are performed following a published technique for locoregional block of the manus in cats (Enomoto et al. (2016) J. Feline Med. Surg. 18:838-845). To block the superficial branches of the radial nerve (RSbr nn), the limb is positioned with the dorsal aspect facing upwards and the carpus in 180° of extension. A 25 G×⅝-inch needle is inserted subcutaneously (SC) from a point at the center of the limb at the level of the antebrachiocarpal joint. The needle is advanced approximately 10 mm SC at a 10-20° angle to the long axis of the limb with the bevel facing up. Once the tip of the needle is 3-5 mm from the confluence point of the accessory cephalic and cephalic veins, the injection is made (0.25 mL). To block the dorsal branch of the ulnar nerve (UDbr n), the limb is positioned with the lateral aspect facing upwards. A point is located lateral to and at the same level as the accessory carpal bone (ACb), positioned between the ACb and the styloid process of the ulna (SpU). A 25 G×⅝-inch needle is inserted SC distal to proximal, so the tip lies at the midpoint of the groove formed between ACb and the SpU, and then the injection is made (0.25 mL). To block the median nerve (M n) and superficial branch of the palmar branch of the ulnar nerve (UPbrS n), the limb is positioned with the palmar aspect facing upwards. A 25 G×⅝-inch needle is inserted SC at the distal border of the carpal pad and approximately 5 mm lateral to it, perpendicular to the long axis of the metacarpus, with the bevel facing up. The needle is inserted SC until the point is located two-thirds of the distance from the lateral aspect of the limb to the medial aspect. Two-thirds of the injectate volume is deposited at this point and the remaining volume is injected while the needle is withdrawn (0.25 mL). Gentle massage is applied to the injected volume under the skin for 5 seconds. To block the deep branch of the palmar branch of the ulnar nerve (UPbrDp n), the limb is positioned with the palmar aspect facing upwards. A 25 G×⅝-inch needle is inserted almost perpendicular to the ACb in a mediolateral direction such that the needle contacts the medial palmar aspect of the midpoint of the ACb with the bevel facing up. The needle is then redirected dorsally and advanced on the medial side of the ACb 2-3 mm until it penetrates the flexor retinaculum, and then the injection is made (0.25 mL).
The effectiveness of the injection with RTX is assessed at days 3, 7, and 14 using owner videography for qualitative assessment (jumping, manipulation of the limb), and cats will also be evaluated using the Feline Musculoskeletal Pain Index (FMPI) and the Client Specific Outcome Measure (CSOM).
For CSOM, owners are asked to score three attributes (Q1) Extending distal limb, “kneading”; stretching, (Q2) Running; and (Q3) Jumping down from bed and window using a scale of 1-5 where 1=no problem, 2=mild difficulty, 3=moderate, 4=severe difficulty, and 5=impossible.
(§1) Tolerance, safety, and analgesic effects of RTX administration were evaluated in a single declawed cat with maladaptive pain. […] The cat also presented a self-limiting decreased appetite for 12 hours post injection.

[3] = system: declawed cat with maladaptive pain; test: Physical exam and behavioral findings in a declawed cat after perineural RTX; type: in vivo; settings: one cat
Experimental: as §1
A summary of the pre- and post-RTX injection physical exam results relevant to pain related to the declawed digits are presented in Table 4.
Additionally, the cat had shown elimination behavior issues, aggressivity when manipulated, and diminished attention seeking before treatment. Each of these behavioral issues related to the chronic maladaptive pain state reversed following the perineural administration of RTX, even though the cat was believed to have been in pain for years prior to this treatment.

C=C(C)[C@]12C[C@@H](C)[C@@]34O[C@](Cc5ccccc5)(O[C@@H]1[C@@H]3C=C(COC(=O)Cc1ccc(O)c(OC)c1)C[C@]1(O)C(=O)C(C)=C[C@@H]41)O2 [RTX, resiniferatoxin]
Tolerability of perineural RTX at the described doses ([1]; 2.5 ug and 5 ug total per cat): well tolerated | Adverse event: hypersalivation ([1]; Group 1 (2.5 ug total)): 71.4% | Adverse event: panting ([1]; Group 1 (2.5 ug total)): 57.1% | Adverse event: vocalization ([1]; Group 1 (2.5 ug total)): 57.1% | AEs presented and resolved the same day of administration ([1]; Group 1 (2.5 ug total), 26/30): 86.6% | Animals with self-limiting reactions related to the treatment ([1]; Group 1 (2.5 ug total, 1.25 ug per forelimb, n=7)): 71.4% | Adverse event: hypersalivation ([1]; Group 2 (5 ug total)): 50% | Adverse event: panting ([1]; Group 2 (5 ug total)): 83.3% | Adverse event: vocalization ([1]; Group 2 (5 ug total)): 83.3% | AEs presented and resolved the same day of administration ([1]; Group 2 (5 ug total), 21/22): 95.4% | Animals with self-limiting reactions related to the treatment ([1]; Group 2 (5 ug total, 2.5 ug per forelimb, n=6)): 100% | AEs presented and resolved the same day of administration ([1]; both groups): more than 85% | Time to resolution of most common adverse events after treatment ([1]; both groups): ≤ 4 h | CSOM Q1 Extending distal limb; “kneading”; stretching ([2]; Day 0 (baseline)): 3 | CSOM Q2 Running ([2]; Day 0 (baseline)): 3 | CSOM Q3 Jumping down from bed and window ([2]; Day 0 (baseline)): 2 | CSOM Total score ([2]; Day 0 (baseline)): 8 | CSOM Q1 Extending distal limb; “kneading”; stretching ([2]; Day 3): 2 | CSOM Q2 Running ([2]; Day 3): 3 | CSOM Q3 Jumping down from bed and window ([2]; Day 3): 2 | CSOM Total score ([2]; Day 3): 7 | CSOM Q1 Extending distal limb; “kneading”; stretching ([2]; Day 7): 1 | CSOM Q2 Running ([2]; Day 7): 2 | CSOM Q3 Jumping down from bed and window ([2]; Day 7): 2 | CSOM Total score ([2]; Day 7): 5 | CSOM Q1 Extending distal limb; “kneading”; stretching ([2]; Day 14): 2 | CSOM Q2 Running ([2]; Day 14): 2 | CSOM Q3 Jumping down from bed and window ([2]; Day 14): 2 | CSOM Total score ([2]; Day 14): 6 | CSOM Q1 Extending distal limb; “kneading”; stretching ([2]; Screening (baseline)): 3 | CSOM Q2 Running ([2]; Screening (baseline)): 3 | CSOM Q3 Jumping down from bed and window ([2]; Screening (baseline)): 2 | CSOM Total score ([2]; Screening (baseline)): 8 | CSOM: extending distal limb, kneading, stretching and running ([2]; after injection): showed improvement | Behavioral issues (elimination behavior issues, aggressivity when manipulated, diminished attention seeking) ([3]; following perineural administration): reversed | Overall conclusion from CSOM and FMPI scores ([3]; 2.5 μg/forelimb perineural): safe and effective | Persistence of effects ([3]; 2.5 μg/forelimb perineural): at least 14 days
